Data as given in PubChem BioAssay (NCI).
Several values for one entry are separate records, joined by “and”; a condition that tells them apart may be missing. Identical values can stand only once.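 48-hour exposure; five concentrations; linearly interpolated endpoints. At the GI50, growth is halved. At the TGI there is no net growth.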

What was measured:
Assay in all cases: DTP human tumour cell line panel, 48 h
SK-MEL-5 melanoma = system: SK-MEL-5 melanoma
SR leukemia = system: SR leukemia
LOX IMVI melanoma = system: LOX IMVI melanoma
ACHN renal = system: ACHN renal
UACC-257 melanoma = system: UACC-257 melanoma
HOP-62 NSCLC = system: HOP-62 NSCLC
NCI-H522 lung = system: NCI-H522 lung
NCI-H23 lung = system: NCI-H23 lung
U251 CNS = system: U251 CNS
BT-549 breast = system: BT-549 breast

Row | Compound | TGI (SK-MEL-5 melanoma) [µM] | TGI (SR leukemia) [µM] | TGI (LOX IMVI melanoma) [µM] | TGI (ACHN renal) [µM] | TGI (UACC-257 melanoma) [µM] | TGI (HOP-62 NSCLC) [µM] | TGI (NCI-H522 lung) [µM] | TGI (NCI-H23 lung) [µM] | TGI (U251 CNS) [µM] | GI50 (SK-MEL-5 melanoma) [µM] | GI50 (LOX IMVI melanoma) [µM] | GI50 (ACHN renal) [µM] | GI50 (UACC-257 melanoma) [µM] | GI50 (HOP-62 NSCLC) [µM] | GI50 (NCI-H522 lung) | GI50 (NCI-H23 lung) [µM] | GI50 (BT-549 breast) [µM] | TGI (BT-549 breast) [µM] | GI50 (U251 CNS) [µM] | GI50 (SR leukemia) [µM]
1 | COC(=O)CC(=O)C[P+](c1ccccc1)(c1ccccc1)c1ccccc1 | > 218 | > 218 | > 218 | > 218 | > 218 | > 218 | 86.8 | > 218 | > 218 | – | – | – | – | – | – | – | – | – | – | –
2 | COC(=O)C1=C(C(=O)OC)C2C=CC1C1C(Cl)=C(Cl)C21 (stereo unspecified) | > 100 | – | > 100 | > 100 | > 100 | > 100 | > 100 | > 100 | > 100 | – | – | – | – | – | – | – | – | – | – | –
3 | CCN(CC)c1c(C(=O)/C=C/c2ccccc2)c(-c2ccccc2)nn(C)c1=O | > 100 | > 100 | 35.9 | > 100 | > 100 | > 100 | > 100 | – | – | – | – | – | – | – | – | – | – | – | – | –
4 | Cn1cc(-c2cnc3ccc(NC(=O)Nc4ccc(F)c(Br)c4)cc3n2)cn1 | 3.03 | – | 2.9 | 4.31 | 4.57 | 3.84 | 4.75 | 3.91 | 3.88 | 1.63 | 1.51 | 1.81 | 1.92 | 1.8 | 1.71 µM | 1.75 | 1.51 | 3.24 | 1.76 | –
5 | COc1ccc(OC)c(NC(=O)C(=O)C(C(C)=O)c2nc3ccc(Cl)cc3[nH]c2=O)c1 (stereo unspecified) | > 50 | – | > 50 | > 50 | > 50 | > 50 | – | > 50 | > 50 | – | – | – | – | – | – | – | – | – | – | –
6 | CCCCCCCCCCCCCC(=O)OC1CC(=O)OC1CO (stereo unspecified) | > 100 | – | 73.5 | > 100 | > 100 | > 100 | – | – | > 100 | – | – | – | – | – | – | – | – | – | – | –
7 | COC(=O)C(=O)C(C(=O)C=C(C)C)C(=O)C(=O)Nc1cc(C(F)(F)F)ccc1Cl (stereo unspecified) | > 100 | 39.9 | > 100 | > 100 | > 100 | > 100 | > 100 | > 100 | > 100 | – | – | – | – | – | – | – | – | – | – | –
8 | COc1cc(C2c3cc4c(cc3C(NCC(O)CO)C3COC(=O)[C@H]23)OCO4)cc(OC)c1OC (stereo partly specified) | – | > 100 | > 100 | > 100 | > 100 | 0.676 | – | 0.797 | 0.766 | – | – | – | – | – | – | – | – | – | – | –
9 | O=C1C=CC(=Nc2ccc3c(c2)C(Br)c2ccccc2-3)O1 (stereo unspecified) | – | > 100 | > 100 | > 100 | > 100 | > 100 | 81.7 | > 100 | > 100 | – | – | – | – | – | – | – | – | – | – | –
10 | Cc1ccc(S(=O)(=O)C(CC(=O)N2CCCC2)C(=O)c2ccccc2)cc1 (stereo unspecified) | > 100 | > 100 | > 100 | > 100 | > 100 | > 100 | > 100 | > 100 | > 100 | – | – | – | – | – | – | – | – | – | – | –
11 | CC1=C(C(=O)Nc2ccc([N+](=O)[O-])cc2)C(c2ccc(N(C)C)cc2)C(C(=O)Nc2ccc([N+](=O)[O-])cc2)=C(C)N1 | 32.1 | – | 23.5 | 43.6 | 35.6 | 27.5 | 25.6 | 52.8 | 66.5 | – | – | – | – | – | – | – | – | – | – | –
12 | CC[CH2][Pb]([CH2]CC)([CH2]CC)[O]C(=O)C(F)(F)F | 0.264 | – | 0.255 | 0.458 | 0.455 | 0.404 | 0.348 | – | 0.348 | 0.127 | 0.0891 | 0.149 | 0.154 | 0.176 | 0.181 µM | – | 0.222 | 0.707 | 0.156 | –
13 | COC(=O)C[C@H]1CCC2(OCCO2)[C@]1(C)C(=O)OC | > 100 | – | > 100 | > 100 | > 100 | > 100 | > 100 | > 100 | > 100 | – | – | – | – | – | – | – | – | – | – | –
14 | N#CC1(Cc2ccc(N)cc2)c2ccccc2C=CN1C(=O)c1ccccc1 (stereo unspecified) | 47.2 | 94.3 | > 100 | > 100 | > 100 | > 100 | > 100 | > 100 | > 100 | – | – | – | – | – | – | – | – | – | – | –
15 | COc1ccc2cc1Oc1ccc(cc1)CC1c3cc(c(OC)cc3CCN1C)Oc1c3c(cc4c1C(C2)N(C)CC4)OCO3 (stereo unspecified) | 25.1 | 28.2 | 4.72 | 13.9 | – | 29.8 | 20.3 | 31.9 | 17.3 | – | – | – | – | – | – | – | – | – | – | –
16 | CCCCCCCCCCCC(=O)CC(=O)c1c(O)cccc1O | 35.6 | 45.8 | 32 | 35.2 | 34.5 | 48.9 | 65.3 | 41.9 | 31.5 | – | – | – | – | – | – | – | – | – | – | –
17 | N#CSCC1CC(O)(c2ccccc2)C(c2ccccc2)C(c2ccc(Cl)cc2)O1 (stereo unspecified) | 2.98 | 4.95 | 2.97 | 3.02 | 3.39 | 3.96 | – | 3.03 | 3.12 | 1.63 | 1.58 | 1.6 | 1.61 | 2.08 | – | 1.57 | – | – | 1.58 | 1.9
18 | O=[N+]([O-])/C=C\c1ccc(Cl)c(Cl)c1 | 14 | – | 1.73 | 13.3 | 2.89 | 9.57 | – | 3.31 | 2.14 | 3.57 | 0.412 | 3.47 | 1.4 | 2.88 | – | 1.63 | 4.15 | 14.9 | 0.916 | –
19 | CC(C)CC(=O)[O-].CC(C)CC(=O)[O-].N.N.N.N.[Co+3].[O-][Cl+3]([O-])([O-])[O-] | > 100 | – | > 100 | > 100 | > 100 | > 100 | > 100 | > 100 | > 100 | > 100 | > 100 | > 100 | > 100 | > 100 | 51 µM and 90 µM | > 100 | – | – | > 100 | –
20 | CCCCCCCCCC[C@@H](O)[C@@H]1CC[C@H]([C@H]2CC[C@@H]([C@@H](O)CCCCCCCCCC[C@H]3CC(CC(C)=O)C(=O)O3)O2)O1 (stereo partly specified) | 10.7 | – | 36 | – | 26.7 | 31 | 13.2 | 16.4 | 43.8 | – | – | – | – | – | – | – | – | – | – | –
